In US7473711B2, “Androgen modulators” (Pfizer Inc., priority 2004, dated 2009):
Numbering of substitutions follows the chain as printed. Where two headings read alike, the source gives them in different places.

Columns and labels:
[1] = target: T1, hAR (human androgen receptor) (Homo sapiens, UniProt P10275); experiment: Competitive binding analysis on hAR extracts with 3H-DHT tracer
T1 construct: made in house; host or cells: baculovirus/Sf9 insect cells (extract)
T1 sequence (P10275 1-920): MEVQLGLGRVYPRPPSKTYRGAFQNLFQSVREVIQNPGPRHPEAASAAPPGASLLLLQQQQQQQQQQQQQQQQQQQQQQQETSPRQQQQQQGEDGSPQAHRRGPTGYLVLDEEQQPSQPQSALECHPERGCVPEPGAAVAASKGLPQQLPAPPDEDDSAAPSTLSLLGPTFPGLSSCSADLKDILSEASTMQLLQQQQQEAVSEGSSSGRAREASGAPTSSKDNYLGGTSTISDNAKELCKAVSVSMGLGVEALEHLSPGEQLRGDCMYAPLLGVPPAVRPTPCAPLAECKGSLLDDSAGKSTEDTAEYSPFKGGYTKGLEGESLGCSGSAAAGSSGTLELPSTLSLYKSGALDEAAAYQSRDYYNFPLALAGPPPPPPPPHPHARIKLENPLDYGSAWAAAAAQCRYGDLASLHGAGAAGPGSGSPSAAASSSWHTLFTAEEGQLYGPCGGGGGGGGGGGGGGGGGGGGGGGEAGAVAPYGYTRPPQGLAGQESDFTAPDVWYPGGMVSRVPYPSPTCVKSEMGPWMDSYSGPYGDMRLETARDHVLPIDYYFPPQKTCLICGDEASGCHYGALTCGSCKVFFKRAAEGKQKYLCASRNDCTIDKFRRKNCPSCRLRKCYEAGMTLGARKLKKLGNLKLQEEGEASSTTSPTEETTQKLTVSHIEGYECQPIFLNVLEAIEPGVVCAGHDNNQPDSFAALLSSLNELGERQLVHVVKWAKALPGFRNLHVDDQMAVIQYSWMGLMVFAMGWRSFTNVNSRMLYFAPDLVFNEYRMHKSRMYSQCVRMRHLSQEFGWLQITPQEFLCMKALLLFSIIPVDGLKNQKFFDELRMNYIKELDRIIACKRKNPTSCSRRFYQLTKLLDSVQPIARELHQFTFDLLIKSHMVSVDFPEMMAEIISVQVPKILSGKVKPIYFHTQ
Description: The compounds of Formula I have affinity for the androgen receptor. […] The description below describes how the assay was carried out.
Competitive binding analysis was performed on baculovirus/Sf9 generated hAR extracts in the presence or absence of different concentrations of test agent and a fixed concentration of ^3H-dihydrotestosterone (^3H-DHT) as tracer. This binding assay method is a modification of a protocol previously described (Liao S., et. al. J. Steroid Biochem. 20:11-17 1984). Briefly, progressively decreasing concentrations of compounds are incubated in the presence of hAR extract (Chang et al. P.N.A.S. Vol. 89, pp. […], 1992), hydroxylapatite, and 1 nM ^3H-DHT for one hour at 4° C. Subsequently, the binding reactions are washed three times to completely remove excess unbound ^3H-DHT. hAR bound ^3H-DHT levels are determined in the presence of compounds (i.e. competitive binding) and compared to levels bound when no competitor is present (i.e. maximum binding). Compound binding affinity to the hAR is expressed as the concentration of compound at which one half of the maximum binding is inhibited. Table II below provides the results that were obtained for selected compounds (reported data is the mean of multiple tests as shown below)

[2] = target: T2, androgen receptor in MDA-MB453-MMTV clone 54-19 cells (Homo sapiens, UniProt P10275); experiment: AR antagonist cell assay (MMTV-luciferase reporter, 100 pM DHT); type: cell-based
T2 sequence (P10275 1-920 Q868H): T1 sequence (P10275 1-920) with Q868H
Description: The compounds ability to antagonize the effects of androgen on the androgen receptor were determined in a whole cell assay as described immediately below.
Experimental Procedure for AR Antagonist Cell Assay
Cell line: MDA-MB453-MMTV clone 54-19. This cell line is a stable transfected cell line with MDA-MB453 cell background (a human breast tumor cell line expressing androgen receptor). A MMTV minimal promoter containing ARE was first cloned in front of a firefly luciferase reporter gene. Then the cascade was cloned into transfection vector pUV120puro. Electroporation method was used for transfecting MDA-MB-453 cell. Puromycin resistant stable cell line was selected. Cell Culture Media and Reagents:
Culture medium: DMEM (high glucose, Gibco cat #: 11960-044), 10% FBS, and 1% L-glutamine
Plating medium: DMEM (phenol red free), 10% charcoal treated HyClone serum, 1% L-glutamine
Assay medium: DMEM (phenol red free), 1% charcoal treated HyClone serum, 1% L-glutamine, and 1% penicillin/streptomycin
3X luciferase buffer: 2% beta-mercaptoethanol, 0.6% ATP, 0.0135% luciferine in cell lysis buffer
• 1. Cells are maintained in culture medium, splitting cells when they reach 80-90% confluence • 2. To test compounds, 10,000 cells/well are plated to opaque 96 cell culture plate in 100 ul/well plating medium, culture for overnight at 37° C. in cell culture incubator • 3. Carefully remove plating medium, then add 80 ul/well of pre-warmed assay medium, add 10 ul/well testing compound (final concentration at) 1000 nM, 200 nM, 40 nM, 8 nM, 1.6 nM, and 0.32 nM), incubate at 37° C. for 30 minutes • 4. Add 10 ul/well freshly prepared DHT (final concentration at 100 pM) to each well, incubate at 37° C. for 17 hr (overnight) • 5. Add 50 ul/well 3X luciferase buffer, incubate at room temperature for 5 minutes, then count on Luminometer
The fold induction over background by 100 pM DHT in the absence of testing compounds is standardized as 100% and experimental result is expressed as percentage of inhibition by testing compounds.
The results are reported as the mean of multiple tests as described below (the numbers of tests are indicated in the footnote). N.D. denotes that the compound was not tested.

[3] = baculovirus/Sf9 hAR extract, 1 nM 3H-DHT, one hour at 4° C, mean of multiple tests, read-out: AR Binding IC50
[4] = MDA-MB453-MMTV clone 54-19, inhibition of 100 pM DHT induced luciferase, 17 hr; mean of multiple tests; read-out: AR Cell IC50
[5] = read-out: AR Cell IC50; MDA-MB453-MMTV clone 54-19, inhibition of 100 pM DHT induced luciferase, 17 hr; mean of multiple tests

| Structure (SMILES) | IC50 [1, 3] [µM] | IC50 [2, 4] [µM] | IC50 [1] [µM] | IC50 [2, 5] [µM] |
| --- | --- | --- | --- | --- |
| CCCC(CCCOc1ccc(C#N)c(C(F)(F)F)c1)Oc1ccc(C#N)c(C(F)(F)F)c1 (centres unmarked) [Example 21, 4,4′-[Heptane-1,4-diylbis(oxy)]bis[2-(trifluoromethyl)benzonitrile]] | 0.233 | > 1 | – | – |
| COC[C@H](COc1ccccc1)Oc1ccc(C#N)c(C(F)(F)F)c1 [Example 30, (1R)-4-(1-Methoxymethyl-2-phenoxy-ethoxy)-2-trifluoromethyl-benzonitrile] | – | – | 0.03 | 0.04 |
| CCCCCCC(COc1ccc(C#N)c(C(F)(F)F)c1)Oc1ccc(C#N)c(C(F)(F)F)c1 (centres unmarked) [Example 9, 4,4′-[Octane-1,2-diylbis(oxy)]bis[2-(trifluoromethyl)benzonitrile]] | 0.109 | 0.531 | – | – |
| C[C@H](CCOc1ccc(C#N)c(C(F)(F)F)c1)Oc1ccc(C#N)c(C(F)(F)F)c1 [Example 14, 4-({(3R)-3-[4-Cyano-3-(trifluoromethyl)phenoxy]butyl}oxy)-2-(trifluoromethyl)benzonitrile] | 0.281 | 0.905 | – | – |
| CC(C)NCC(COc1ccc(C#N)c(C(F)(F)F)c1)Oc1ccc(C#N)c(C(F)(F)F)c1 (centres unmarked) [Example 7] | 0.319 | > 1 | – | – |
| C[C@H](Oc1ccc(C#N)c(C(F)(F)F)c1)[C@H](C)Oc1ccc(C#N)c(C(F)(F)F)c1 [Example 1, 4,4′-[(2S,3S)-Butane-2,3-diylbis(oxy)]bis[2-(trifluoromethyl)benzonitrile]] | 0.191 | 0.531 | – | – |
| COCC(COc1ccc(C#N)c(C(F)(F)F)c1)Oc1ccc(C#N)c(C(F)(F)F)c1 (centres unmarked) [Example 5, 4,4′-[(3-Methoxypropane-1,2-diyl)bis(oxy)]bis[2-(trifluoromethyl)benzonitrile]] | – | 0.187 | 0.056 | – |
| CC(C)(CCOc1ccc(C#N)c(C(F)(F)F)c1)Oc1ccc(C#N)c(C(F)(F)F)c1 [Example 18, 4,4′-[(3-Methylbutane-1,3-diyl)bis(oxy)]bis[2-(trifluoromethyl)benzonitrile]] | 0.41 | > 1 | – | – |
| CCOCC(COc1ccc(C#N)c(C(F)(F)F)c1)Oc1ccc(C#N)c(C(F)(F)F)c1 (centres unmarked) [Example 6, 4,4′-[(3-Ethoxypropane-1,2-diyl)bis(oxy)]bis[2-(trifluoromethyl)benzonitrile]] | 0.124 | > 1 | – | – |
| CC(C)CCCC(COc1ccc(C#N)c(C(F)(F)F)c1)Oc1ccc(C#N)c(C(F)(F)F)c1 (centres unmarked) [Example 8] | 0.967 | > 1 | – | – |
| CC(CCOc1ccc(C#N)c(C(F)(F)F)c1)CCOc1ccc(C#N)c(C(F)(F)F)c1 [Example 26, 4,4′-[(3-Methylpentane-1,5-diyl)bis(oxy)]bis[2-(trifluoromethyl)benzonitrile]] | 0.156 | 0.212 | – | – |
| CC1(C)CC1(COc1ccc(C#N)c(C(F)(F)F)c1)Oc1ccc(C#N)c(C(F)(F)F)c1 (centres unmarked) [Example 10, 4-[1-(4-Cyano-3-trifluoromethyl-phenoxymethyl)-2,2-dimethyl-cyclopropoxy]-2-trifluoromethyl-benzonitrile] | 0.174 | 0.447 | – | – |
| CC(COc1ccc(C#N)c(C(F)(F)F)c1)COc1ccc(C#N)c(C(F)(F)F)c1 [Example 12, 4,4′-[(2-Methylpropane-1,3-diyl)bis(oxy)]bis[2-(trifluoromethyl)benzonitrile]] | 0.233 | > 1 | – | – |
| CC(COc1ccc(C#N)c(C(F)(F)F)c1)C(C)Oc1ccc(C#N)c(C(F)(F)F)c1 (centres unmarked) [Example 16, 4-{3-[4-Cyano-3-(trifluoromethyl)phenoxy]-1,2-dimethylpropoxy}-2-(trifluoromethyl)benzonitrile] | 0.372 | – | – | – |
| CC(CCOc1ccc(C#N)c(C(F)(F)F)c1)Oc1ccc(C#N)c(C(F)(F)F)c1 (centres unmarked) [Example 13, 4,4′-[Butane-1,3-diylbis(oxy)]bis[2-(trifluoromethyl)benzonitrile]] | – | – | 0.01 | 0.1 |
| CC(CCCCOc1ccc(C#N)c(C(F)(F)F)c1)Oc1ccc(C#N)c(C(F)(F)F)c1 (centres unmarked) [Example 25, 4,4′-[Hexane-1,5-diylbis(oxy)]bis[2-(trifluoromethyl)benzonitrile]] | 0.159 | > 1 | – | – |
| CC(CCC(C)Oc1ccc(C#N)c(C(F)(F)F)c1)Oc1ccc(C#N)c(C(F)(F)F)c1 (stereo in doubt) [Example 23, 4,4′-[(2S,5S)-Hexane-2,5-diylbis(oxy)]bis[2-(trifluoromethyl)benzonitrile]] | 0.18 | 0.202 | – | – |
| C[C@@H](Oc1ccc(C#N)c(C(F)(F)F)c1)[C@@H](C)Oc1ccc(C#N)c(C(F)(F)F)c1 [Example 2, 4,4′-[(2R,3R)-Butane-2,3-diylbis(oxy)]bis[2-(trifluoromethyl)benzonitrile]] | – | – | 0.034 | 0.067 |
